Values quoted from earlier work, collected in patent US9937184B2 (THEOCORP HOLDING COMPANY, LLC, priority 2013, dated 2018).

What was measured:
[1] = in vivo
[2] = tested on: UMR 106-01 rat obsteoblast-like cells; conditions: prior art results (Kamagata-Kiyoura 1999)

Row | plasma half-life (t1/2) in the bloodstream [1] | Structure (SMILES) | proliferation of osteoblast-like cells (UMR 106-01) [2]
1 | six | Cn1cnc2c1c(=O)[nH]c(=O)n2C [Theobromine, 3,7-dimethyl-2,3,6,7-tetrahydro-1H-purine-2,6-dione] | –
2 | – | Cn1c(=O)c2c(ncn2C)n(C)c1=O [caffeine, 1,3,7-trimethylxanthine] | inhibits cell proliferation
